In patent US6004950A, “2-aminopyridines as inhibitors of cyclooxygenase-2” (Merck Frosst Canada, Inc., priority 1998, dated 1999) one finds IC50 data, which are given here for 20 compounds.

The target of assay [1] is T1, COX-2 (Homo sapiens, UniProt P35354).
T1 construct: incubation of human whole blood with LPS, which induces COX-2; endogenous in cells; host or cells: heparinized fresh whole blood of human volunteers, incubated with LPS for 24 h
T1 sequence (P35354 18-604): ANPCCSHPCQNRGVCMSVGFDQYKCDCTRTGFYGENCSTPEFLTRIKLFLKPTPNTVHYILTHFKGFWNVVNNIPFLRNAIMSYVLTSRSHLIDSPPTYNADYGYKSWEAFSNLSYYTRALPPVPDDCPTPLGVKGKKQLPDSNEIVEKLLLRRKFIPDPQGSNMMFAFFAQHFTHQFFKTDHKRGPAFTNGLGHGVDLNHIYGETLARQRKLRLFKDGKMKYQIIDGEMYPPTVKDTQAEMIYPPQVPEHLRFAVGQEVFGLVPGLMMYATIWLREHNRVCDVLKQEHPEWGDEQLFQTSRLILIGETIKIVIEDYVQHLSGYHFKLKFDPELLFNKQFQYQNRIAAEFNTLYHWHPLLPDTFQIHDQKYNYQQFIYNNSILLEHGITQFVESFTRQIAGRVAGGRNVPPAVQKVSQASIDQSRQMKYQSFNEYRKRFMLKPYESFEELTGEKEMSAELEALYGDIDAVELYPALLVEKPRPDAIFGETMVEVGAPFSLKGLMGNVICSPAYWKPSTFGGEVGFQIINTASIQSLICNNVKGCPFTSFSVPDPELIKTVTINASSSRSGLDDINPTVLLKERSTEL
Description: Human whole blood assay, COX-2 (LPS-induced PGE2 production). Format: cell-based. An excerpt:
As well, platelets in whole blood contain a large amount of the COX-1 enzyme. Immediately following blood clotting, platelets are activated through a thrombin-mediated mechanism. This reaction results in the production of thromboxane B2 (TxB2) via activation of COX-1. Thus, the effect of test compounds on TxB2 levels following blood clotting can be examined and used as an index for COX-1 activity. Therefore, the degree of selectivity by the test compound can be determined by measuring the levels of PGE2 after LPS induction (COX-2) and TxB2 following blood clotting (COX-1) in the same assay.
A. COX-2 (LPS-induced PGE2 production)
Fresh blood is collected in heparinized tubes by venipuncture from both male and female volunteers. The subjects have no apparent inflammatory conditions and have not taken any NSAIDs for at least 7 days prior to blood collection. Plasma is immediately obtained from a 2 mL blood aliquot to use as blank (basal levels of PGE2).

A further assay has as its target COX-1 (Homo sapiens, UniProt P23219). Description: Assay of COX-1 activity from U937 cell microsomes. Format: biochemical. Further details: Assay of COX-1 Activity from U937 cell microsomes; endogenous in cells; host or cells: U937 cells, 100,000×g microsomal pellet. On the procedure: Assay of COX-1 Activity from U937 cell microsomes
U 937 cells are pelleted by centrifugation at 500×g for 5 min and washed once with phosphate-buffered saline and repelleted. Cells are resuspended in homogenization buffer consisting of 0.1 M Tris-HCl, pH 7.4, 10 mM EDTA, 2 μg/ml leupeptin, 2 μg/ml soybean trypsin inhibitor, 2 μg/ml aprotinin and 1 mM phenyl methyl sulfonyl fluoride. The cell suspension is sonicated 4 times for 10 sec and is centrifuged at 10,000×g for 10 min at 4° C. The supernatant is centrifuged at 100,000×g for 1 hr at 4° C. The 100,000×g microsomal pellet is resuspended in 0.1 M Tris-HCl, pH 7.4, 10 mM EDTA to approximately 7 mg protein/ml and stored at -80° C.
Microsomal preparations are thawed immediately prior to use, subjected to a brief sonication, and then diluted to a protein concentration of 125 μg/ml in 0.1 M Tris-HCl buffer, pH 7.4 containing 10 mM EDTA, 0.5 mM phenol, 1 mM reduced glutathione and 1 μM hematin. Assays are performed in duplicate in a final volume of 250 μl. Initially, 5 μl of DMSO vehicle or drug in DMSO are added to 20 μl of 0.1 M Tris-HCl buffer, pH 7.4 containing 10 mM EDTA in wells of a 96-deepwell polypropylene titre plate. 200 μl of the microsomal preparation are then added and pre-incubated for 15 min at room temperature before addition of 25 μl of […] arachidonic acid in […] Tris-HCl and 10 mM EDTA, pH 7.4. Samples are incubated for 40 min at room temperature and the reaction is stopped by the addition of 25 μl of 1 N HCl. Samples are neutralized with 25 μl of 1 N NaOH prior to quantitation of PGE2 content by radioimmunoassay (Dupont-NEN or Amersham assay kits). Cyclooxygenase activity is defined as the difference between PGE2 levels in samples incubated in the presence of arachidonic acid and ethanol vehicle.
In the assay, inhibition is determined by measuring the amount of prostaglandin E2 (PGE2) synthesized in the presence of arachidonic acid, cyclooxygenase-1 or cyclooxygenase-2 and a putative inhibitor.

In assay [2] the target is T1, COX-2. Description: Whole cell assay for COX-2 using CHO transfected cell line CHO[hCOX-2], inhibition of PGE2 synthesis. Format: cell-based.
Description: Whole cell assays for COX-2 and COX-1 using CHO transfected cell lines
Chinese hamster ovary (CHO) cell lines which have been stably transfected with an eukaryotic expression vector pCDNAIII containing either the human COX-1 or COX-2 cDNA's are used for the assay. These cell lines are referred to as CHO [hCOX-1] and CHO [hCOX-2], respectively. For cyclooxygenase assays, CHO[hCOX-1] cells from suspension cultures and CHO[hCOX-2] cells prepared by trypsinization of adherent cultures are harvested by centrifugation (300×g, 10 min) and washed once in HBSS containing 15 mM HEPES, pH 7.4, and resuspended in HBSS, 15 mM HEPES, pH 7.4, at a cell concentration of 1.5×10^6 cells/ml. Drugs to be tested are dissolved in DMSO to 66.7-fold the highest test drug concentration. […] Cells (0.3×10^6 cells in 200 μl) are preincubated with 3 μl of the test drug or DMSO vehicle for 15 min at 37° C. Working solutions of peroxide-free AA (5.5 μM and 110 μM AA for the CHO [hCOX-1] and CHO [COX-2] assays, respectively) are prepared by a 10-fold dilution of a concentrated AA solution in ethanol into HBSS containing 15 mM HEPES, pH 7.4. Cells are then challenged in the presence or absence of drug with the AA/HBSS solution to yield a final concentration of 0.5 μM AA in the CHO[hCOX-1] assay and a final concentration of 10 μM AA in the CHO[hCOX-2] assay. The reaction is terminated by the addition of 10 μl 1 N HCl followed by neutralization with 20 μl of 0.5 N NaOH. The samples are centrifuged at 300×g at 4° C. for 10 min, and an aliquot of the clarified supernatant is appropriately diluted for the determination of PGE2 levels using an enzyme-linked immunoassay for PGE2 (Correlate PGE2 enzyme immunoassay kit, Assay Designs, Inc.). Cyclooxygenase activity in the absence of test compounds is determined as the difference in PGE2 levels of cells challenged with arachidonic acid versus the PGE2 levels in cells mock-challenged with ethanol vehicle. Inhibition of PGE2 synthesis by test compounds is calculated as a percentage of the activity in the presence of drug versus the activity in the positive control samples.
Setting [3] is: U937 cell microsomes, PGE2, read-out: COX-1 (IC50 mM) U-937.
Setting [4] is: human whole blood, LPS-induced PGE2, 24 h, read-out: COX-2 (IC50 mM) HWB.
The mark [5] stands for this setting: CHO[hCOX-2] cells, 10 μM AA, PGE2, read-out: COX-2 (IC50 mM) CHO.

Where two headings read alike, the source gives them in different places.

Chain of COX-1 (P23219 24-599): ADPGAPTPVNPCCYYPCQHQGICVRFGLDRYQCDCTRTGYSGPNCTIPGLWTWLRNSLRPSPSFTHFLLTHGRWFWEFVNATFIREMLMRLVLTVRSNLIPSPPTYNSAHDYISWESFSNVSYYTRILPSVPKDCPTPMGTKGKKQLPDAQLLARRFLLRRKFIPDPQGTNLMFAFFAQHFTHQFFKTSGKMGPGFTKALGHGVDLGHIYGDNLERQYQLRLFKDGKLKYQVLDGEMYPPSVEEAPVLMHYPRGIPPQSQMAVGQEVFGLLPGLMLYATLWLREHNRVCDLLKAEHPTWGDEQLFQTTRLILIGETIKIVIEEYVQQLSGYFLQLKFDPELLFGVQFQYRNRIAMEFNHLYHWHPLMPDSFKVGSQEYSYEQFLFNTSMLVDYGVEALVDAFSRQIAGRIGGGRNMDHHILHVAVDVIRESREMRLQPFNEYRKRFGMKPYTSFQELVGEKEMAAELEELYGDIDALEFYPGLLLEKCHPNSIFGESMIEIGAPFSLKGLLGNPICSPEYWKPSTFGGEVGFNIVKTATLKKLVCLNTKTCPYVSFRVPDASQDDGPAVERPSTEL

In the case of `CS(=O)(=O)c1ccc(-c2cc(C(F)(F)F)cnc2N2CCC[C@H](CO)C2)cc1` (single isomer, unassigned) [Example 14, (-)-3-(4-Methylsulfonyl)phenyl-2-(3-hydroxymethyl)piperidin-1-yl-5-trifluoromethylpyridine], the IC50 (usually the point on the concentration scale where inhibition reaches its midpoint) was 0.0005 mM on COX-2 [1], 0.003 to 0.01 mM at COX-1 (setting [3]) and 0.03 µM against COX-2 [2].

Consider `CS(=O)(=O)c1ccc(-c2cc(C(F)(F)F)cnc2N2CCC[C@@H](CO)C2)cc1` (single isomer, unassigned) [Example 15, (+)-3-(4-Methylsulfonyl)phenyl-2-(3-hydroxymethyl)piperidin-1-yl-5-trifluoromethylpyridine], for which the values for the IC50 against COX-2 [1], at COX-1 (setting [3]) and against COX-2 [2] were 0.0266 mM, above 0.01 mM and 0.03 µM, respectively.

As to `CS(=O)(=O)c1ccc(-c2cc(C(F)(F)F)cnc2N2CCCC2)cc1` [Example 1, 3-(4-Methylsulfonyl)phenyl-2-pyrrolidin-1-yl-5-trifluoromethylpyridine], the figures for the 50% inhibitory concentration (IC50) against COX-2 [1], against COX-1 and on COX-2 [2] were 0.0097 mM, above 0.01 mM and 0.02 µM, respectively.

With `CS(=O)(=O)c1ccc(-c2cc(Cl)cnc2N2CCCCC2)cc1` [Example 3, 5-Chloro-3-(4-methylsulfonyl)phenyl-2-piperidin-1-ylpyridine], on COX-1 (setting [3]), the IC50 was in the range of 0.001 to 0.003 mM.

In the case of `CS(=O)(=O)c1ccc(-c2cccnc2N2CCCCC2)cc1` [Example 4, 3-(4-Methylsulfonyl)phenyl-2-piperidin-1-ylpyridine], the half-inhibitory concentration (IC50) is 0.006 mM at COX-2 [1] (setting [4]), above 0.05 mM at COX-1 (setting [3]) and 0.13 µM at COX-2 [2] (setting [5]).

Consider `CS(=O)(=O)c1ccc(-c2cc(C(F)(F)F)cnc2N2CC=CCC2)cc1` [Example 5, 3-(4-Methylsulfonyl)phenyl-2-(1,2,3,6-tetrahydropyridinyl)-5-trifluoromethylpyridine], for which the results for the 50% inhibitory concentration (IC50) at COX-2 [1] (setting [4]), at COX-1 (setting [3]) and at COX-2 [2] (setting [5]) were 0.001 mM, 0.001 to 0.003 mM and 0.002 µM, respectively.

Turning to `CS(=O)(=O)c1ccc(-c2cc(C(F)(F)F)cnc2N2CCCCCC2)cc1` [Example 6, 2-(Homopiperidin-1-yl)-3-(4-methylsulfonyl)phenyl-5-trifluoromethylpyridine], the IC50 at COX-2 [1] (setting [4]) was 0.006 mM; at COX-1 (setting [3]), 0.01 mM; at COX-2 [2] (setting [5]), 0.004 µM.

Consider `CS(=O)(=O)c1ccc(-c2cc(C(F)(F)F)cnc2N2CCC[C@H]2CO)cc1` [Example 7, 3-(4-Methylsulfonyl)phenyl-2-((2S)-2-hydroxymethyl)pyrrolidin-1-yl-5-trifluoromethylpyridine], for which the figures for the IC50 on COX-2 [1] (setting [4]), on COX-1 (setting [3]) and at COX-2 [2] (setting [5]) were 0.0002 mM, 0.003 to 0.01 mM and 0.04 µM, respectively.

In the case of `CS(=O)(=O)c1ccc(-c2cc(C(F)(F)F)cnc2N2CCC[C@@H]2CO)cc1` [Example 8, 3-(4-Methylsulfonyl)phenyl-2-((2R)-2-hydroxymethyl)pyrrolidin-1-yl-5-trifluoromethylpyridine], the values for the IC50 on COX-2 [1] (setting [4]), on COX-1 (setting [3]) and on COX-2 [2] (setting [5]) were above 0.033 mM, above 0.01 mM and above 5 µM, respectively.

Regarding `CS(=O)(=O)c1ccc(-c2cc(Cl)cnc2N2CCC[C@H]2CO)cc1` [Example 9, 5-Chloro-3-(4-methylsulfonyl)phenyl-2-((2S)-2-hydroxymethyl)pyrrolidin-1-ylpyridine], the IC50 at COX-2 [1] (setting [4]) is 0.0001 mM; at COX-1 (setting [3]), 0.001 to 0.003 mM; on COX-2 [2] (setting [5]) it was 0.03 µM.

Take `COC[C@@H]1CCCN1c1ncc(C(F)(F)F)cc1-c1ccc(S(C)(=O)=O)cc1` [Example 10, 3-(4-Methylsulfonyl)phenyl-2-((2S)-2-methoxymethyl)pyrrolidin-1-yl-5-trifluoromethylpyridine]: the results for the IC50 on COX-2 [1] (setting [4]), on COX-1 (setting [3]) and at COX-2 [2] (setting [5]) were 0.0031 mM, 0.003 to 0.01 mM and 0.09 µM, respectively.

With `CC(=O)OC[C@@H]1CCCN1c1ncc(C(F)(F)F)cc1-c1ccc(S(C)(=O)=O)cc1` [Example 11, 3-(4-Methylsulfonyl)phenyl-2-((2S)-2-acetoxymethyl)pyrrolidin-1-yl-5-trifluoromethylpyridine], the IC50 on COX-2 [1] (setting [4]) is below 0.0004 mM; on COX-1 (setting [3]), above 0.01 mM; at COX-2 [2] (setting [5]), 0.07 µM.

Take `COC[C@@H]1CCCN1c1ncc(Cl)cc1-c1ccc(S(C)(=O)=O)cc1` [Example 12, 5-Chloro-3-(4-methylsulfonyl)phenyl-2-((2S)-2-methoxymethyl)pyrrolidin-1-ylpyridine]: the IC50 at COX-1 (setting [3]) was in the range of 0.003 to 0.01 mM.

As to `CS(=O)(=O)c1ccc(-c2cc(C(F)(F)F)cnc2N2CCCCC2CO)cc1` (stereo not drawn) [Example 13, 3-(4-Methylsulfonyl)phenyl-2-(2-hydroxymethyl)piperidin-1-yl-5-trifluoromethylpyridine], the IC50 at COX-2 [1] (setting [4]) worked out at 0.0027 mM; at COX-1 (setting [3]), 0.01 mM; on COX-2 [2] (setting [5]), 0.1 µM.

For the compound `CS(=O)(=O)c1ccc(-c2cc(Cl)cnc2N2CCCC(CO)C2)cc1` (stereo not drawn) [Example 16, 5-Chloro-3-(4-methylsulfonyl)phenyl-2-(3-hydroxymethyl)piperidin-1-ylpyridine], at COX-1 (setting [3]), the IC50 is above 0.01 mM.

Turning to `CC1(CO)CCCN(c2ncc(C(F)(F)F)cc2-c2ccc(S(C)(=O)=O)cc2)C1` (stereo not drawn) [Example 17, 3-(4-Methylsulfonyl)phenyl-2-(3-hydroxymethyl-3-methyl)piperidin-1-yl-5-trifluoromethylpyridine], the IC50 at COX-2 [1] (setting [4]) was 0.0053 mM; on COX-1 (setting [3]), above 0.01 mM; on COX-2 [2] (setting [5]), 0.4 µM.

Turning to `CS(=O)(=O)c1ccc(-c2cc(C(F)(F)F)cnc2N2CCCCC(CO)C2)cc1` (stereo not drawn) [Example 18, 3-(4-Methylsulfonyl)phenyl-2-(3-hydroxymethyl)homopiperidin-1-yl-5-trifluoromethylpyridine], the IC50 at COX-2 [1] (setting [4]) is 0.0234 mM; at COX-1 (setting [3]), above 0.01 mM; on COX-2 [2] (setting [5]), 0.08 µM.

As for `CS(=O)(=O)c1ccc(-c2cc(C(F)(F)F)cnc2N2CCCCC2CCO)cc1` (stereo not drawn) [Example 19, 3-(4-Methylsulfonyl)phenyl-2-(2-(2-hydroxyethyl))piperidin-1-yl-5-trifluoromethylpyridine], the IC50 at COX-2 [1] (setting [4]) was 0.0032 mM; at COX-1 (setting [3]), above 0.01 mM; at COX-2 [2] (setting [5]) it was 0.92 µM.

Consider `CS(=O)(=O)c1ccc(-c2cc(C(F)(F)F)cnc2N2CCC(=O)CC2)cc1` [Example 20, 3-(4-Methylsulfonyl)phenyl-2-(4-oxo)piperidin-1-yl-5-trifluoromethylpyridine], for which the values for the IC50 on COX-2 [1] (setting [4]), at COX-1 (setting [3]) and on COX-2 [2] (setting [5]) were 0.0104 mM, above 0.01 mM and 0.09 µM, respectively.

As for `CS(=O)(=O)c1ccc(-c2cc(C(F)(F)F)cnc2N2CCCC(=O)C2)cc1` [Example 21, 3-(4-Methylsulfonyl)phenyl-2-(3-oxo)piperidin-1-yl-5-trifluoromethylpyridine], the IC50 was 0.0053 mM on COX-2 [1] (setting [4]), above 0.01 mM on COX-1 (setting [3]) and 0.11 µM at COX-2 [2] (setting [5]).
